In US20140378416A1, “SILYL-CONTAINING HETEROCYCLIC COMPOUNDS AND METHODS OF USE THEREOF FOR THE TREATMENT OF VIRAL DISEASES” (priority 2011, published 2014):

Assays:
[1] = tested on: HCV replicon 1a Y93H; assay: Cell-based HCV replicon assay (TaqMan), genotype 1a Y93H mutant replicon; settings: Hepatitis C virus, 72 h, read-out: 1a Y93H EC90, HCV 1a Y93H mutant replicon cells, replicon RNA by TaqMan on day 3; EC90 = concentration for ΔCT=3.2 over baseline
Protocol: (§1) Measurement of inhibition by compounds of the present invention was performed using the HCV replicon system. Several different replicons encoding different HCV genotypes or mutations were used. In addition, potency measurements were made using different formats of the replicon assay, including different ways of measurements and different plating formats. See Jan M. Vrolijk et al., A replicons-based bioassay for the measurement of interferons in patients with chronic hepatitis C, 110 J. VIROLOGICAL METHODS 201 (2003); Steven S. Carroll et al., Inhibition of Hepatitis C Virus RNA Replication by 2′-Modified Nucleoside Analogs, 278(14) J. BIOLOGICAL CHEMISTRY 11979 (2003). However, the underlying principles are common to all of these determinations, and are outlined below.
(§2) Compounds of the present invention were assayed for cell-based anti-HCV activity using the following protocol. Replicon cells were seeded at 5000 cells/well in 96-well collagen I-coated Nunc plates in the presence of the test compound. Various concentrations of test compound, typically in 10 serial 2-fold dilutions, were added to the assay mixture, with the starting concentration ranging from 250 μM to 1 μM. The final concentration of DMSO was 0.5%, fetal bovine serum was 5%, in the assay media. Cells were harvested on day 3 by the addition of 1× cell lysis buffer (Ambion cat #8721). The replicon RNA level was measured using real time PCR (TaqMan® assay). The amplicon was located in 5B. The PCR primers were: 5B.2F, ATGGACAGGCGCCCTGA (SEQ. ID NO. 1); 5B.2R, […] (SEQ. ID NO. 2); the probe sequence was FAM-labeled CACGCCATGCGCTGCGG (SEQ. ID NO. 3). GAPDH RNA was used as endogenous control and was amplified in the same reaction as NS5B (multiplex PCR) using primers and VIC-labeled probe recommended by the manufacturer (PE Applied Biosystem). The real-time […] reactions were run on ABI PRISM 7900HT Sequence Detection System using the following program: 48° C. for 30 minutes, 95° C. for 10 minutes, 40 cycles of 95° C. for 15 sec, 60° C. for 1 minute. The ACT values (CT5B-CTGAPDH) were plotted against the concentration of test compound and fitted to the sigmoid dose-response model using XLfit4 (MDL). EC50 was defined as the concentration of inhibitor necessary to achieve ΔCT=1 over the projected baseline; EC90 the concentration necessary to achieve ΔCT=3.2 over the baseline. Alternatively, to quantitate the absolute amount of replicon RNA, a standard curve was established by including serially diluted T7 transcripts of replicon RNA in the Taqman assay. All TaqMan® reagents were from PE Applied Biosystems. Such an assay procedure was described in detail in e.g. Malcolm et al., Antimicrobial Agents and Chemotherapy 50: 1013-1020 (2006).
(§3) HCV replicon EC50 assay data for various replicons and mutants was calculated for selected compounds of the present invention using this method and is provided in the tables above herein.

[2] = tested on: HCV replicon 1a; assay: Cell-based HCV replicon assay (TaqMan), genotype 1a replicon; settings: Hepatitis C virus, 72 h, HCV 1a replicon cells, replicon RNA by TaqMan on day 3; EC90 = concentration for ΔCT=3.2 over baseline
Protocol: as §1, §2, §3

[3] = tested on: HCV replicon 1b; assay: Cell-based HCV replicon assay (TaqMan), genotype 1b replicon; settings: Hepatitis C virus, 72 h, HCV 1b replicon cells, replicon RNA by TaqMan on day 3; EC90 = concentration for ΔCT=3.2 over baseline
Protocol: as §1, §2, §3

[4] = tested on: HCV replicon 2b; assay: Cell-based HCV replicon assay (TaqMan), genotype 2b replicon; settings: Hepatitis C virus, 72 h, read-out: 2b EC90, HCV 2b replicon cells, replicon RNA by TaqMan on day 3; EC90 = concentration for ΔCT=3.2 over baseline
Protocol: as §1, §2, §3

| SMILES | EC90 [1] [nM] | EC90 [2] [nM] | EC90 [3] [nM] | EC90 [4] [nM] |
| --- | --- | --- | --- | --- |
| COC(=O)N[C@H](C(=O)N1CCC[C@H]1c1ncc(-c2ccc(-c3ccc4[nH]c([C@@H]5C[Si](C)(C)CN5C(=O)[C@@H](NC(=O)OC)C(C)C)nc4c3)cc2)[nH]1)C(C)C [Compound 9] | > 1000 | > 1 | < 1 |  |
| CC(C)(C)OC(=O)N1CCC[C@H]1c1cnc(-c2ccc3c(c2)[Si](C)(C)c2cc(-c4cnc([C@@H]5CCCN5C(=O)OC(C)(C)C)[nH]4)ccc2-3)[nH]1 [Compound 80] |  | > 1 | 467 |  |
| CC(C)(C)OC(=O)N1CCC[C@H]1C(=O)Nc1n[nH]c2ccc(-c3ccc(-c4cnc([C@@H]5C[Si](C)(C)CN5C(=O)OC(C)(C)C)[nH]4)cc3)cc12 [Compound 76] | > 10000 | > 1000 |  |  |
| COC(=O)N[C@H](C(=O)N1CC(F)(F)C[C@H]1c1cnc(-c2ccc(-c3ccc(-c4cnc([C@@H]5C[Si](C)(C)CN5C(=O)[C@@H](NC(=O)OC)C(C)C)[nH]4)cc3)cc2)[nH]1)C(C)C [Compound 74] | 644 | 0.27 |  |  |
| COC(=O)N[C@H](C(=O)N1C[Si](C)(C)C[C@H]1c1ncc(-c2ccc(-c3ccc(-c4[nH]c([C@@H]5CCCN5C(=O)[C@@H](NC(=O)OC)C(C)C)nc4Cl)cc3)cc2)[nH]1)C(C)C [Compound 64] | 344 | 0.17 |  | 99 |
| CC(C)(C)OC(=O)N1CCC[C@H]1C(=O)Nc1nn(C(=O)OC(C)(C)C)c2ccc(-c3ccc(-c4cnc([C@@H]5C[Si](C)(C)CN5C(=O)OC(C)(C)C)[nH]4)cc3)cc12 [Compound 77] | > 10000 | > 1000 |  |  |
| CC(C)(C)OC(=O)N1C[Si](C)(C)C[C@H]1c1ncc(-c2ccc(-c3ccc(-c4[nH]c([C@@H]5CCCN5C(=O)OC(C)(C)C)nc4C4CC4)cc3)cc2)[nH]1 [Compound 61] | 655 | 81 |  |  |
| COC(=O)N[C@H](C(=O)N1CCC[C@H]1c1ncc(-c2ccc(-c3ccc(-c4cnc([C@@H]5C[Si](C)(C)CN5C(=O)[C@@H](NC(=O)OC)C(C)C)[nH]4)c(OC)c3)cc2)[nH]1)C(C)C [Compound 70] | > 1000 | > 1 | 0.006 |  |
| COC(=O)N[C@H](C(=O)N1CCC[C@H]1c1cnc(-c2ccc(-c3ccc(-c4cnc([C@@H]5C[Si](C)(C)CN5C(=O)[C@@H](NC(=O)OC)C(C)C)[nH]4)cc3)cc2)[nH]1)C(C)C [Compound 72] | 330 | 0.092 | 0.005 |  |
| COC(=O)N[C@H](C(=O)N1C[Si](C)(C)C[C@H]1c1ncc(-c2ccc(-c3ccc4[nH]c([C@@H]5CC(F)(F)CN5C(=O)[C@@H](NC(=O)OC)C(C)C)nc4c3)cc2F)[nH]1)C(C)C [Compound 71] | > 1000 | > 1 | 0.005 |  |
| COC(=O)N[C@H](C(=O)N1C[Si](C)(C)C[C@H]1c1nc(Cl)c(-c2ccc(-c3ccc(-c4[nH]c([C@@H]5C[C@H]6C[C@H]6N5C(=O)[C@@H](NC(=O)OC)C(C)C)nc4Cl)cc3)cc2)[nH]1)C(C)C [Compound 51] | 13.7 | 0.008 |  | 2.9 |
| COC(=O)N[C@@H](C(=O)N1CCC[C@@H]1c1ncc(-c2ccc(-c3ccc(-c4cnc([C@H]5C[Si](C)(C)CN5C(=O)[C@H](NC(=O)OC)C5CC5)[nH]4)cc3)cc2)[nH]1)C1CC1 [Compound 23] | 1000 | 1.16 |  | 550 |
| COC(=O)N[C@H](C(=O)N1CC(F)(F)C[C@H]1c1ncc(-c2ccc(-c3ccc(-c4cnc([C@@H]5C[Si](C)(C)CN5C(=O)[C@@H](NC(=O)OC)C(C)C)[nH]4)cc3)cc2)[nH]1)C(C)C [Compound 4] | 272 | 0.1 | 0.007 |  |
